Patent US20100040710A1, “Stimulation of the synthesis and of the activity of an isoform of lysyl oxidase-like LOXL for stimulating the formation of elastic fibers” (BASF Beauty Care Solutions France SAS, priority 2003, published 2010)
Marks after values point to notes of the source that are not given here.

Experiments:
Format in all cases: cell-based, human
LOX mRNA [1] = test: Screening of active principles by qualitative RT-PCR: LOX mRNA expression in fibroblasts; conditions: actives at 1% (v/v), 24 hours, fibroblasts of the abdomen of mature age adult (donor), mRNA vs actin and negative control
Experimental: (§1) The active principles were tested at 1% (v/v) on fibroblasts of normal human skin (originating from the foreskin of the infant or originating from the adult). The culture was carried out, e.g. in a monolayer on 24-well culture plates, in a defined medium without serum (Fibroblast Basal Medium). The cells were sown, e.g. at 40,000 per cm^2. At the confluence, the cells are placed in contact with the actives advantageously for 24 hours. In parallel, a non-treated control (medium alone) and three positive controls (TGF-β at 1 ng/ml, IL-1α at […] and Phytokine® (Coletica, Lyons, France) at 2% (v/v)) are advantageously carried out, e.g. on the same culture plate.
(§2) The TGF-β at 1 ng/ml and the IL-1α at 50 pg/ml were tested beforehand and the stimulation of the synthesis of elastin mRNA induced by these two cytokines at these concentrations was verified by an analysis of the mRNAs, e.g. by quantitative RT-PCR (×10 for TGF-β and x6 for IL-1 alpha). After the time of placing the actives in contact with the cells, e.g. 24 hours, the media are removed and the cells are preserved e.g. by dry freezing at −80° C. after a rinsing in phosphate buffer pH 7.4. The total RNAs are extracted e.g. with the aid of an extraction kit of 96 wells on silica columns and were determined on a 96-well spectrophotometer at 260 nm (purity indicator: protein determination at 280 nm). The RNAs are diluted e.g. to 5 ng/μl. The qualitative RT-PCR in 1 step is carried out e.g. on 50 ng of initial RNA on a 96-well plate, on the genes of actin, elastin, of LOX and of LOXL. The specific primers of each gene are used e.g. at 0.5 μM: […]
(§3) The amplification parameters were advantageously the following 48° C., 30 min; 94° C., 2 min; (94° C., 30 seconds; 60° C., 30 seconds; 68° C., 30 seconds) 28 cycles for actin, 30 cycles for LOXL, 32 cycles for LOX, or 34 cycles for elastin; 68° C., 10 min; 14° C., infinity. […] The photographs of the gels were analyzed by image analysis and quantification of the intensity of the bands (Phoretix1D, France). […]

elastin (Eln) mRNA = test: Screening of active principles by qualitative RT-PCR: elastin mRNA expression in fibroblasts; conditions: actives at 1% (v/v), 24 hours, fibroblasts of the abdomen of mature age adult (donor), mRNA vs actin and negative control
Experimental: as §1, §2, §3

LOXL mRNA [2] = test: Screening of active principles by qualitative RT-PCR: LOXL mRNA expression in fibroblasts; conditions: actives at 1% (v/v), 24 hours, fibroblasts of the abdomen of mature age adult (donor), mRNA vs actin and negative control
Experimental: as §1, §2, §3

LOXL mRNA [3] = test: Real time RT-PCR effectiveness study: LOXL mRNA in adult fibroblasts; conditions: 24 hours, adult abdomen fibroblasts (donor)
Experimental: (§4) […] The culture was carried out e.g. in monolayer in 24-well plates, in a defined medium without serum (Fibroblast Basal Medium). The cells are sown e.g. at 40,000 per cm^2. After the time of placing the actives in contact with the cells (24 hours), the media were removed and the cells were preserved e.g. by dry freezing at −80° C. after a rinsing with phosphate buffer at pH 7.4. At the end of experimentation, the content of mRNA of elastin, of LOXL and of actin is evaluated by an mRNA analysis technique, e.g. by real time RT-PCR. For this, the couples of primers enabling the amplification of specific fragments of these genes are those described above (Example 10).
(§5) After extraction e.g. with the aid of an extraction kit in 96-wells on silica columns and determination on a 96-well spectrophotometer at 260 nm, the RNAs are diluted e.g. to 5 ng/μl. The RT-PCR reactions ([…]) were carried out by quantitative real time RT-PCR with the aid of the “Opticon” system (MJ Research). Advantageously, the reaction mixture (50 μl) introduced into the wells was the following, for each sample: • 10 μl of RNA at a concentration of 5 ng/μl, • The specific primers of the various labels sought after, • Reaction mixture (Qiagen−25 μl 2×QuantiTect SYBR Green RT-PCR master mix containing 5 mM MgCl2+0.5 μl QuantITect RT mix), the label SYBR Green I inserting in the DNA double strands during the elongation step. The RT-PCR Conditions were Advantageously the Following: Reverse Transcription: 30 minutes at 50° C., then 15 minutes at 95° C., PCR reactions: [15 seconds at 94° C., 30 seconds at 60° C. and 30 seconds at 72° C.], 50 cycles.
(§6) The absence of contamination and the purity of the amplified products were verified e.g. via the fusion curves of the amplified PCR products. The products presenting a double peak or an abnormal fusion temperature were eliminated.
(§7) The incorporation of fluorescence in the amplified DNA was evaluated continuously during the PCR cycles. This system enabled obtaining curves of fluorescence measurement as a function of the number of PCR cycles and thus enabled evaluating a relative amount of amplified DNA.
(§8) In order to take account of the cell population present, all the results were compared to the <> signal, which was used as housekeeping gene. According to the experimentation, the threshold of measurement of the C(T) (=Cycle Threshold) was fixed for T between 0.05 and 0.01, and then an arbitrary measurement unit is calculated for each gene according to the formula:
(§9) Sgene<=10^7×(1/2)^C(T)gene<>
(§10) C (T)gene <> signifying the number of cycles necessary to attain the cycle threshold of 0.01-0.05 of the gene <>.
(§11) The values of the genes of interest were compared to the <> signal by calculation of the ratio: […]

LOX mRNA [4] = test: Real time RT-PCR effectiveness study: LOX mRNA in adult fibroblasts; conditions: 24 hours, adult abdomen fibroblasts (donor)
elastin mRNA [5] = test: Real time RT-PCR effectiveness study: elastin mRNA in adult fibroblasts; conditions: 24 hours, adult abdomen fibroblasts (donor)
Experimental: as §4, §5, §6, §7, §8, §9, §10, §11

elastin mRNA [6] = test: Positive controls: stimulation of elastin mRNA synthesis by quantitative RT-PCR; conditions: 1 ng/ml, fold (×)
Experimental: as §1
as §2, with “nm).” for “nm). The RNAs are diluted e.g. to 5 ng/μl. The qualitative RT-PCR in 1 step is carried out e.g. on 50 ng of initial RNA on a 96-well plate, on the genes of actin, elastin, of LOX and of LOXL. The specific primers of each gene are used e.g. at 0.5 μM:”

ethyl decadienoate
LOX Control multiplied by: (LOX mRNA [1]): 3.64
Eln Control multiplied by: (elastin (Eln) mRNA): 2.04
LOXL Control multiplied by: (LOXL mRNA [2]): 2.32

ethyl hexenoate
LOX Control multiplied by: (LOX mRNA [1]): 3.09
Eln Control multiplied by: (elastin (Eln) mRNA): 1.5
LOXL Control multiplied by: (LOXL mRNA [2]): 2.33

CCCC(=O)OC [methyl butyrate]
LOX Control multiplied by: (LOX mRNA [1]): 5.08
Eln Control multiplied by: (elastin (Eln) mRNA): 1.43
LOXL Control multiplied by: (LOXL mRNA [3]; active at 0.01%): 0.89
LOXL Control multiplied by: (LOXL mRNA [3]; active at 0.1%): 1.56
LOXL Control multiplied by: (LOXL mRNA [3]; active at 1%): 2.10*
LOXL Control multiplied by: (LOXL mRNA [3]; active at 5%): 0.91
LOX Control multiplied by: (LOX mRNA [4]; active at 0.01%): 1.04
LOX Control multiplied by: (LOX mRNA [4]; active at 0.1%): 1.76*
LOX Control multiplied by: (LOX mRNA [4]; active at 1%): 2.17*
LOX Control multiplied by: (LOX mRNA [4]; active at 5%): 0.91
LOXL Control multiplied by: (LOXL mRNA [2]): 3.24
El Control multiplied by: (elastin mRNA [5]; active at 0.01%): 0.92
El Control multiplied by: (elastin mRNA [5]; active at 0.1%): 0.96
El Control multiplied by: (elastin mRNA [5]; active at 1%): 1.25
El Control multiplied by: (elastin mRNA [5]; active at 5%): 1.70*

TGF-β
stimulation of the synthesis of elastin mRNA (elastin mRNA [6]): 10
